What follows are molecules tested against CDK2/Cyclin E1 (Homo sapiens (Human), UniProt P24941) (assay: CDK2/Cyclin E1 HTRF enzyme activity assay). Conditions: 1 mM ATP; CDK2/Cyclin E1 0.25 nM; 60 minutes at room temperature.
Type: biochemical
Protocol: Example A. CDK2/Cyclin E1 HTRF Enzyme Activity Assay
CDK2/Cyclin E1 enzyme activity assays utilize full-length human CDK2 co-expressed as N-terminal GST-tagged protein with FLAG-Cyclin E1 in a baculovirus expression system (Carna Product Number 04-165). Assays were conducted in white 384-well polystyrene plates in a final reaction volume of 8 μL. CDK2/Cyclin E1 (0.25 nM) was incubated with the compounds of the Examples (40 nL serially diluted in DMSO) in the presence of ATP (50 μM or 1 mM) and 50 nM ULight™-labeled eIF4E-binding protein 1 (THR37/46) peptide (PerkinElmer) in assay buffer (containing 50 mM HEPES pH 7.5, 1 mM EGTA, 10 mM MgCl2, 2 mM DTT, 0.05 mg/mL BSA, and 0.01% Tween 20) for 60 minutes at room temperature. The reactions were stopped by the addition of EDTA and Europium-labeled anti-phospho-4E-BP1 antibody (PerkinElmer), for a final concentration of 15 mM and 1.5 nM, respectively. HTRF signals were read after 1 hour at room temperature on a PHERAstar FS plate reader (BMG Labtech). Data was analyzed with IDBS XLFit and GraphPad Prism 5.0 software using a three or four parameter dose response curve to determine IC50 for each compound.

IC50, ≤ 10 nM:
Cc1cc(-c2c(-c3cn[nH]c3)ccn3nc(Nc4ccnc(C)c4C)nc23)c(F)cn1 [Example 6, N-(2,3-Dimethylpyridin-4-yl)-8-(5-fluoro-2-methylpyridin-4-yl)-7-(1H-pyrazol-4-yl)-[1,2,4]triazolo[1,5-a]pyridin-2-amine]
CC(C)Oc1c(-c2cn[nH]c2)ncn2nc(Nc3ccc(S(C)(=O)=O)cc3F)nc12 [Example 12, N-(2-Fluoro-4-(methylsulfonyl)phenyl)-8-isopropoxy-7-(1H-pyrazol-4-yl)-[1,2,4]triazolo[1,5-c]pyrimidin-2-amine]
Cc1nccc(Nc2nc3c(-c4ccc(CN5CCCC5)c(F)c4)c(-c4cn[nH]c4)ccn3n2)c1C [Example 5, N-(2,3-Dimethylpyridin-4-yl)-8-(3-fluoro-4-(pyrrolidin-1-ylmethyl)phenyl)-7-(1H-pyrazol-4-yl)-[1,2,4]triazolo[1,5-a]pyridin-2-amine]
Cc1cc(-c2c(-c3cn[nH]c3)ccn3nc(Nc4ccnc5ccccc45)nc23)c(F)cc1C#N [Example 7, 4-(7-(1H-Pyrazol-4-yl)-2-(quinolin-4-ylamino)-[1,2,4]triazolo[1,5-a]pyridin-8-yl)-5-fluoro-2-methylbenzonitrile]
Cc1nccc(Nc2nc3c(-c4cc(C#N)ccc4F)c(-c4cn[nH]c4)ccn3n2)c1C [Example 2, 3-(2-((2,3-Dimethylpyridin-4-yl)amino)-7-(1H-pyrazol-4-yl)-[1,2,4]triazolo[1,5-a]pyridin-8-yl)-4-fluorobenzonitrile]
Cc1nccc(Nc2nc3c(OC(C)C)c(-c4cn[nH]c4)ncn3n2)c1C [Example 10, N-(2,3-Dimethylpyridin-4-yl)-8-isopropoxy-7-(1H-pyrazol-4-yl)-[1,2,4]triazolo[1,5-c]pyrimidin-2-amine]
Cc1nccc(Nc2nc3c(-c4ccc(CO)cc4F)c(-c4cn[nH]c4)ccn3n2)c1C [Example 4, (4-(2-((2,3-Dimethylpyridin-4-yl)amino)-7-(1H-pyrazol-4-yl)-[1,2,4]triazolo[1,5-a]pyridin-8-yl)-3-fluorophenyl)methanol]
Cc1c(Nc2nc3c(OC(C)C)c(-c4cn[nH]c4)ncn3n2)ccnc1CN(C)C [Example 8, N-(2-((Dimethylamino)methyl)-3-methylpyridin-4-yl)-8-isopropoxy-7-(1H-pyrazol-4-yl)-[1,2,4]triazolo[1,5-c]pyrimidin-2-amine]
Cc1nccc(Nc2nc3c(-c4ccc5c(c4)oc(=O)n5C)c(-c4cn[nH]c4)ccn3n2)c1C [Example 1, 6-(2-((2,3-Dimethylpyridin-4-yl)amino)-7-(1H-pyrazol-4-yl)-[1,2,4]triazolo[1,5-a]pyridin-8-yl)-3-methylbenzo[d]oxazol-2(3H)-one]
Cc1c(Nc2nc3c(OC(C)C)c(-c4cn[nH]c4)ncn3n2)ccc2nccn12 [Example 11, 8-Isopropoxy-N-(5-methylimidazo[1,2-a]pyridin-6-yl)-7-(1H-pyrazol-4-yl)-[1,2,4]triazolo[1,5-c]pyrimidin-2-amine]
Cc1nccc(Nc2nc3c(-c4ccc5c(cnn5C)c4)c(-c4cn[nH]c4)ccn3n2)c1C [Example 3, N-(2,3-Dimethylpyridin-4-yl)-8-(1-methyl-1H-indazol-5-yl)-7-(1H-pyrazol-4-yl)-[1,2,4]triazolo[1,5-a]pyridin-2-amine]
Cc1c(Nc2nc3c(OC(C)C)c(-c4cn[nH]c4)ncn3n2)ccnc1CO [Example 9, (4-((8-Isopropoxy-7-(1H-pyrazol-4-yl)-[1,2,4]triazolo[1,5-c]pyrimidin-2-yl)amino)-3-methylpyridin-2-yl)methanol]

From patent US11981671B2, “Bicyclic pyrazolyl amines as CDK2 inhibitors” (Incyte Corporation, priority 2021, dated 2024)
